Test results published in US20230374141A1, “COMBINATION THERAPY FOR ALPORT RENAL DISEASE” (Father Flanagan's Boys' Home Doing Business as Boys Town …, priority 2020, published 2023).
No end group written: not given here.

How the values were obtained:
DKO mice [1] = test: Glomerular filtration rate, MediBeacon transdermal LED approach, DKO mice; assay type: in vivo; details: ramipril-treated DKO mice, 25 weeks relative to 20 weeks of age; two mice
Description: Glomerular filtration rates (GFR) were measured using the MediBeacon (St Louis, MO) transdermal LED approach, which allows serial measurements to be conducted in the same animals. […] Serial GFR measures were made using two ramipril-treated DKO mice. GFR measures were at 20 and 25 weeks of age. Additional mice at additional timepoints of measure (to 30 weeks) will be added as part of the research plan to establish statistical significance.

[2] = test system: al integrin null Alport (DKO) mice; test: Lifespan of ramipril-treated α1 integrin null Alport (DKO) mice; assay type: in vivo
Description: (§1) Autosomal Alport mice or al integrin null Alport (DKO) mice (both on the 129 Sv background) were given straight water or treated with ramipril (10 mg/kg/day in drinking water) starting at 3 weeks of age. Proteinuria (FIG. 1) and lifespan (FIG. 2) were measured. We were surprised to see the improvement of lifespan from 20 weeks in ramipril-treated Alport mice to >30 weeks in ramipril-treated DKO mice. Tripling the lifespan of the Alport mouse model (which lives to on average 10 weeks of age as is evident in FIG. 2) is unprecedented in the Alport field. Integrin α1-null Alport (DKO) mice treated with ramipril live twice as long as untreated DKO mice and 3 times as long as untreated Alport mice. Animals from the indicated treatment groups were allowed to live until they lost >10% of their peak body weight and then euthanized (a humane endpoint, considered age of death). DKO mice show a 60% increase in lifespan. […] If translated to humans (as did ramipril treatment starting at a young age) this therapy could portend survival to 60-70 years of age for Alport patients with severe mutations.

Autosomal Alport mice = test: Lifespan of ramipril-treated autosomal Alport mice; assay type: in vivo; details: ramipril 10 mg/kg/day in drinking water from 3 weeks of age, 129 Sv, humane endpoint >10% loss of peak body weight
Description: as §1

DKO mice [3] = test: Dual immunofluorescence of glomeruli for mesangial proteins in the GBM of DKO mice; assay type: in vivo
From the text: FIGS. 3A-3F are color dual immunofluorescence confocal images of glomeruli stained with antibodies against laminin α5 (a GBM marker) and laminin α2. FIGS. 3A-3C are untreated DKO mice. FIGS. 3D-3F are DKO mice treated with Ramipril. FIGS. 3A and 3D show laminin α5 data. FIGS. 3B and 3E show laminin α2 data. FIGS. 3C and 3F show a merge of the laminin α5 and laminin α2 data.
FIGS. 4A-4F are color dual immunofluorescence confocal images of glomeruli stained with antibodies against nidogen (a GBM marker) and collagen III. FIGS. 4A-4C are untreated DKO mice. FIGS. 4D-4F are DKO mice treated with Ramipril. FIGS. 4A and 4D show nidogen data. FIGS. 4B and 4E show collagen 3 α1 data. FIGS. […] show a merge of the nidogen and collagen 3 α1 data.
This evidence has obvious and important translational value. By preventing the invasion of the glomerular capillaries by mesangial filopodia, the deposition of mesangial proteins in the GBM is prevented. This prevents podocyte injury that is caused by the mesangial matrix.
If the ECM deposition in the GBM is indeed a significant contributor to glomerular pathology we would expect it would be delayed in the ramipril-treated DKO mice. To determine if this was indeed the case, we performed immunohistochemical analysis for laminin 211 dual stained with the GBM marker laminin α5. Specifically, Duan immunofluorescence analysis was performed on cryosections from 20 and 25 week old DKO/ramipril mice. Sections were immunostained using antibodies for laminin 211 and laminin α5 (a GBM marker). […] Between 20 and 25 weeks of age, however, GBM localization of laminin 211 became widespread as depicted in FIGS. 6A-6F. FIGS. 6A-6C are the 20-week data and FIGS. 6D-6F are the 25-week data.

α1 null Alport mice = test: Proteinuria (Bradford assay, normalized to urinary creatinine) in α1 null Alport mice; assay type: in vivo; details: ramipril-treated vs untreated α1-null Alport mice; total protein normalized to urinary creatinine
Description: FIG. 1. […] Urine was collected from the indicated treatment groups at the indicated ages. Total protein was measured by Bradford assay and normalized to urinary creatinine.
as §1

mesangial cells = test: Filopodia formation in cultured mesangial cells; assay type: cell-based
From the text: Thus, it appears that the al-null mesangial cells are refractive to activation of CDC42, which is consistent with the markedly attenuated effect on mesangial filopodial invasion, explaining why al integrin blockade attenuates ECM-mediated podocyte injury.

[4] = ramipril-treated DKO mice at 10 weeks of age, untreated DKO had a significant amount

Row | Compound | GFR (DKO mice [1]) | lifespan (age of death) ([2]; ramipril 10 mg/kg/day in drinking water from 3 weeks of age, α1 integrin null Alport (DKO) mice, 129 Sv) [weeks] | lifespan relative to untreated Alport mice ([2]; ramipril-treated DKO mice) [times] | lifespan relative to untreated DKO mice ([2]; ramipril-treated DKO mice) | lifespan (age of death) (Autosomal Alport mice) [weeks] | collagen III in the GBM (DKO mice [3]; [4]) | laminin 211 in the GBM (DKO mice [3]; [4]) | GBM accumulation of laminin 211 (DKO mice [3]; ramipril-treated DKO mice, before 20 weeks of age) | GBM localization of laminin 211 (DKO mice [3]; ramipril-treated DKO mice, between 20 and 25 weeks of age) | proteinuria (α1 null Alport mice) | formation of filopodia (mesangial cells; wild type mesangial cells) | formation of filopodia (mesangial cells; α1-null mesangial cells)
1 | CCOC(=O)[C@H](CCc1ccccc1)N[C@@H](C)C(=O)N1[C@H](C(=O)O)C[C@@H]2CCC[C@@H]21 [ramipril] | marked reduction | > 30 | 3 | twice as long | 20 | no laminin 211 or collagen III in the GBM | no laminin 211 or collagen III in the GBM | did not observe any significant GBM accumulation | widespread | markedly reduced | – | –
2 | endothelin-1: stimulus of filopodial formation in mesangial cells (CSCSSLMDKECVYFCHLDIIW; ends and bridges not checked; cysteine pairing not given here; UniProt P05305 53-73, looked up) | – | – | – | – | – | – | – | – | – | – | activates the formation of filopodia | do not respond
